pIC50: −log10 of the molar value.
Key:
Interleukin-23 receptor [1] = target: T1, Interleukin-23 receptor (Homo sapiens, UniProt Q5VWK5); assay: Inhibition of interleukin-23 binding to human interleukin-23 receptor incubated for 2 hrs by competitive binding ELISA
T1 sequence (Q5VWK5 whole entry): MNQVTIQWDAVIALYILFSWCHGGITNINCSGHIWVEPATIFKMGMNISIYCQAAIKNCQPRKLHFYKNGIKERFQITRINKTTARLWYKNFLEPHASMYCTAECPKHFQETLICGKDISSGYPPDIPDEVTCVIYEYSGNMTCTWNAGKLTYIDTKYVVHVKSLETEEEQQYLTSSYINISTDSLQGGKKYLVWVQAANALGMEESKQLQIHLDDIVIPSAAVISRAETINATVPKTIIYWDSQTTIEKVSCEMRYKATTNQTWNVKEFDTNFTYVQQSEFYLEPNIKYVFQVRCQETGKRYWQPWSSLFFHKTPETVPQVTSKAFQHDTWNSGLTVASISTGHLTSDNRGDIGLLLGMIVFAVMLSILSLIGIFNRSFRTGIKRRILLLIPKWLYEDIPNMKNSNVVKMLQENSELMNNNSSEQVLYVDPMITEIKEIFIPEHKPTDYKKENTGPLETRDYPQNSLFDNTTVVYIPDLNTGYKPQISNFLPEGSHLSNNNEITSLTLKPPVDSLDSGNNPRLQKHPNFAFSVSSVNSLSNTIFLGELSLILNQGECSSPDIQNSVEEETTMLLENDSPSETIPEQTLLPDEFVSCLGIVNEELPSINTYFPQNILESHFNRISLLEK

[2] = Half life in simulated gastric fluid at 20 uM by LC-MS/MS analysis; format: ADME
Interleukin-23 receptor [3] = target: T1, Interleukin-23 receptor; assay: Inhibition of interleukin-23 receptor in human DB cells assessed as reduction in IL-23-stimulated STAT3 phosphorylation incubated for 30 mins by HTRF assay; format: cell-based
[4] = Half life in simulated intestinal fluid at 20 uM by LC-MS/MS analysis; format: ADME

| SMILES | pIC50 (Interleukin-23 receptor [1]) | half-life at 20 µM [2] [min] | pIC50 (Interleukin-23 receptor [3]) | half-life at 20 µM [4] [min] |
| --- | --- | --- | --- | --- |
| CC(=O)NCCCC[C@H](NC(=O)C(C)(C)NC(=O)[C@H](Cc1ccc2ccccc2c1)NC(=O)[C@H](Cc1ccc(OCCN)cc1)NC(=O)[C@@H](NC(=O)[C@H](CCC(N)=O)NC(=O)[C@H](Cc1c[nH]c2ccccc12)NC(=O)[C@@H](NC(=O)[C@H](CCC(N)=O)NC(=O)[C@@H](NC(C)=O)C(C)(C)S)[C@@H](C)O)C(C)(C)S)C(=O)N[C@@H](CC(N)=O)C(=O)N[C@@H](CC(N)=O)C(N)=O | > 8.00 | 180 to 360 | > 8.00 | 120 to 180 |
| CC(=O)NCCCC[C@](C)(NC(=O)[C@H](Cc1ccc2ccccc2c1)NC(=O)[C@H](Cc1ccc(OCCNC(C)=O)cc1)NC(=O)[C@@H](NC(=O)[C@H](CCC(N)=O)NC(=O)[C@H](Cc1c[nH]c2ccccc12)NC(=O)[C@@H](NC(=O)[C@H](CCC(N)=O)NC(=O)[C@@H](NC(C)=O)C(C)(C)S)[C@@H](C)O)C(C)(C)S)C(=O)N[C@@H](CCC(=O)O)C(=O)N[C@@H](CC(N)=O)C(=O)N[C@@H](C)C(N)=O | 7.60 to 8.00 | > 360 | > 8.00 | > 360 |
| CC(=O)NCCCC[C@](C)(NC(=O)[C@H](Cc1ccc2ccccc2c1)NC(=O)[C@H](Cc1ccc(OCCNC(C)=O)cc1)NC(=O)[C@@H](NC(=O)[C@H](CCC(N)=O)NC(=O)[C@H](Cc1c[nH]c2ccccc12)NC(=O)[C@@H](NC(=O)[C@H](CCC(N)=O)NC(=O)[C@@H](NC(C)=O)C(C)(C)S)[C@@H](C)O)C(C)(C)S)C(=O)N[C@@H](CCC(=O)O)C(=O)N[C@@H](CC(N)=O)C(=O)NCC(N)=O | 7.60 to 8.00 | > 360 | > 8.00 | 180 to 360 |
| CC(=O)N[C@H]1CCSC[C@@H](C(=O)N[C@@H](Cc2ccc(OCCN)cc2)C(=O)N[C@@H](Cc2ccc3ccccc3c2)C(=O)NC(C)(C)C(=O)N[C@@H](CCC(=O)O)C(=O)N[C@@H](CC(N)=O)C(=O)NCC(N)=O)NC(=O)[C@H](CCC(N)=O)NC(=O)[C@H](Cc2c[nH]c3ccccc23)NC(=O)[C@H]([C@@H](C)O)NC(=O)[C@H](CCC(N)=O)NC1=O | > 8.00 | 120 to 180 | > 8.00 | < 60 |
| CC(=O)N[C@H]1CCSC[C@@H](C(=O)N[C@@H](Cc2ccc(OCCN)cc2)C(=O)N[C@@H](Cc2ccc3ccccc3c2)C(=O)N[C@@](C)(CCCCN)C(=O)N[C@@H](CCC(=O)O)C(=O)N[C@@H](CC(N)=O)C(=O)NCC(N)=O)NC(=O)[C@H](CCC(N)=O)NC(=O)[C@H](Cc2c[nH]c3ccccc23)NC(=O)[C@H]([C@@H](C)O)NC(=O)[C@H]([C@@H](C)O)NC1=O | > 8.00 | 180 to 360 | > 8.00 | 180 to 360 |
| CC(=O)N[C@H]1CCSC[C@@H](C(=O)N[C@@H](Cc2ccc(OCCN)cc2)C(=O)N[C@@H](Cc2c[nH]c3ccccc23)C(=O)N[C@@H](CCC(C)C)C(=O)N[C@@H](CCC(=O)O)C(=O)N[C@@H](CC(N)=O)C(=O)NCC(N)=O)NC(=O)[C@H](CCC(N)=O)NC(=O)[C@H](Cc2c[nH]c3ccccc23)NC(=O)[C@H]([C@@H](C)O)NC(=O)[C@H](CCC(N)=O)NC1=O | 7.60 to 8.00 | < 60 | > 8.00 | < 60 |
| CC(=O)NCCCC[C@H](NC(=O)C(C)(C)NC(=O)[C@H](Cc1ccc2ccccc2c1)NC(=O)[C@H](Cc1ccc(OCCN)cc1)NC(=O)[C@@H](NC(=O)[C@H](CCC(N)=O)NC(=O)[C@H](Cc1c[nH]c2ccccc12)NC(=O)[C@@H](NC(=O)[C@H](CCC(N)=O)NC(=O)[C@@H](NC(C)=O)C(C)(C)S)[C@@H](C)O)C(C)(C)S)C(=O)N[C@@H](CC(N)=O)C(=O)N[C@@H](CCC(N)=O)C(N)=O | > 8.00 | > 360 | > 8.00 | > 360 |
| CC(=O)NCCCC[C@H](NC(=O)[C@](C)(CCCCN)NC(=O)[C@H](Cc1c[nH]c2ccccc12)NC(=O)[C@H](Cc1ccc(O)cc1)NC(=O)[C@@H](NC(=O)[C@H](CCC(N)=O)NC(=O)[C@H](Cc1c[nH]c2ccccc12)NC(=O)[C@@H](NC(=O)[C@H](CCC(N)=O)NC(=O)[C@@H](NC(C)=O)C(C)(C)S)[C@@H](C)O)C(C)(C)S)C(=O)N[C@@H](CC(N)=O)C(=O)NCC(N)=O | 6.00 to 7.00 | > 360 | 7.00 to 7.60 | > 360 |
| CC(=O)NCCOc1ccc(C[C@H](NC(=O)[C@@H](NC(=O)[C@H](CCC(N)=O)NC(=O)[C@H](Cc2c[nH]c3ccccc23)NC(=O)[C@@H](NC(=O)[C@H](CCC(N)=O)NC(=O)[C@@H](NC(C)=O)C(C)(C)S)[C@@H](C)O)C(C)(C)S)C(=O)N[C@@H](Cc2ccc3ccccc3c2)C(=O)NC(C)(C)C(=O)N[C@@H](CCC(=O)O)C(=O)N[C@@H](CC(N)=O)C(=O)N[C@@H](CC(N)=O)C(N)=O)cc1 | 7.60 to 8.00 | > 360 | > 8.00 | > 360 |
| CC(=O)NCCCC[C@H](NC(=O)[C@](C)(CCCN)NC(=O)[C@H](Cc1ccc2ccccc2c1)NC(=O)[C@H](Cc1ccc(OCCN)cc1)NC(=O)[C@@H]1CSCC[C@H](NC(C)=O)C(=O)N[C@@H](CCC(N)=O)C(=O)N[C@@H]([C@@H](C)O)C(=O)N[C@@H](Cc2c[nH]c3ccccc23)C(=O)N[C@@H](CCC(N)=O)C(=O)N1)C(=O)N[C@@H](CC(N)=O)C(=O)NCC(N)=O | > 8.00 | 180 to 360 | > 8.00 | 180 to 360 |
| CC(=O)N[C@H](C(=O)N[C@@H](CCC(N)=O)C(=O)N[C@H](C(=O)N[C@@H](Cc1c[nH]c2ccccc12)C(=O)N[C@@H](CCC(N)=O)C(=O)N[C@H](C(=O)N[C@@H](Cc1ccc(OCCN)cc1)C(=O)N[C@@H](Cc1ccc2ccccc2c1)C(=O)NC(C)(C)C(=O)N[C@@H](CCC(=O)O)C(=O)N[C@@H](CC(N)=O)C(=O)N[C@@H](CC(N)=O)C(N)=O)C(C)(C)S)[C@@H](C)O)C(C)(C)S | > 8.00 | > 360 | > 8.00 | > 360 |
| CC(=O)NCCCC[C@H](NC(=O)[C@](C)(CCCCNC(C)=O)NC(=O)[C@H](Cc1ccc2ccccc2c1)NC(=O)[C@H](Cc1ccc(OCCNC(C)=O)cc1)NC(=O)[C@@H](NC(=O)[C@H](CCC(N)=O)NC(=O)[C@H](Cc1c[nH]c2ccccc12)NC(=O)[C@@H](NC(=O)[C@H](CCC(N)=O)NC(=O)[C@@H](NC(C)=O)C(C)(C)S)[C@@H](C)O)C(C)(C)S)C(=O)N[C@@H](CC(N)=O)C(=O)NCC(N)=O | > 8.00 | > 360 | > 8.00 | > 360 |
| CC(=O)NCCCC[C@H](NC(=O)[C@](C)(CO)NC(=O)[C@H](Cc1ccc2ccccc2c1)NC(=O)[C@H](Cc1ccc(OCCN)cc1)NC(=O)[C@@H]1CSCC[C@H](NC(C)=O)C(=O)N[C@@H](CCC(N)=O)C(=O)N[C@@H]([C@@H](C)O)C(=O)N[C@@H](Cc2c[nH]c3ccccc23)C(=O)N[C@@H](CCC(N)=O)C(=O)N1)C(=O)N[C@@H](CC(N)=O)C(=O)NCC(N)=O | > 8.00 | 120 to 180 | > 8.00 | < 60 |
| CC(=O)NCCCC[C@H](NC(=O)C(C)(C)NC(=O)[C@H](Cc1cccc2ccccc12)NC(=O)[C@H](Cc1ccc(OCCN)cc1)NC(=O)[C@@H]1CSCC[C@H](NC(C)=O)C(=O)N[C@@H](CCC(N)=O)C(=O)N[C@@H]([C@@H](C)O)C(=O)N[C@@H](Cc2c[nH]c3ccccc23)C(=O)N[C@@H](CCC(N)=O)C(=O)N1)C(=O)N[C@@H](CC(N)=O)C(=O)NCC(N)=O | 7.00 to 7.60 | > 360 | 7.60 to 8.00 | > 360 |
| CC(=O)NCCCC[C@](C)(NC(=O)[C@H](Cc1ccc2ccccc2c1)NC(=O)[C@H](Cc1ccc(OCCNC(C)=O)cc1)NC(=O)[C@@H](NC(=O)[C@H](CCC(N)=O)NC(=O)[C@H](Cc1c[nH]c2ccccc12)NC(=O)[C@@H](NC(=O)[C@H](CNC(C)=O)NC(=O)[C@@H](NC(C)=O)C(C)(C)S)[C@@H](C)O)C(C)(C)S)C(=O)N[C@@H](CCC(=O)O)C(=O)N[C@@H](CC(N)=O)C(=O)NCC(N)=O | 7.60 to 8.00 | > 360 | > 8.00 | > 360 |
| CC(=O)NCCOc1ccc(C[C@H](NC(=O)[C@@H](NC(=O)[C@H](CCC(N)=O)NC(=O)[C@H](Cc2c[nH]c3ccccc23)NC(=O)[C@@H](NC(=O)[C@H](CCC(N)=O)NC(=O)[C@@H](NC(C)=O)C(C)(C)S)[C@@H](C)O)C(C)(C)S)C(=O)N[C@@H](Cc2ccc3ccccc3c2)C(=O)N[C@@](C)(CC(C)C)C(=O)N[C@@H](CCC(N)=O)C(=O)N[C@@H](CC(N)=O)C(=O)N[C@@H](CC(N)=O)C(N)=O)cc1 | > 8.00 | > 360 | > 8.00 | > 360 |
| CC(=O)N[C@H]1CCSC[C@@H](C(=O)N[C@@H](Cc2ccc(OCCN)cc2)C(=O)N[C@@H](Cc2ccc3ccccc3c2)C(=O)N[C@@](C)(CCCCN)C(=O)N[C@@H](CCCCNC(=O)c2ccccc2)C(=O)N[C@@H](CC(N)=O)C(=O)NCC(N)=O)NC(=O)[C@H](CCC(N)=O)NC(=O)[C@H](Cc2c[nH]c3ccccc23)NC(=O)[C@H]([C@@H](C)O)NC(=O)[C@H](CCC(N)=O)NC1=O | > 8.00 | > 360 | > 8.00 | 180 to 360 |

Reference: ChEMBL document CHEMBL4417631, “Oral peptide inhibitors of interleukin-23 receptor and their use to treat inflammatory bowel diseases” (2017)
